Reference: patent US12043602B2, “Fendiline derivatives” (The Board of Regents of the University of Texas System, priority 2019, dated 2024)

Assays:
[1] = tested on: pERK; experiment: Immunohistochemistry of tumor sections, pERK; design: species or system nu/nu mice; settings: mouse, in vivo
Protocol: (§1) Immunohistochemistry. 4-5 μm sections were deparaffinized, rehydrated, and treated with 10 mM sodium citrate for heat induced antigen retrieval. After quenching endogenous peroxidase, and blocking with 2.5% normal goat serum (Vector Laboratories S-1012), sections were incubated overnight at 4° C. with primary antibody diluted in blocking solution as recommended by manufacturer (Cell Signaling). Controls were incubated with diluted normal rabbit IgG. After incubation with biotinylated secondary antibody diluted 1:250 in blocking serum for 45 min at rt, sections were incubated with VECTASTAIN ABC reagent for 30 min, and for development of the DAB chromogen the Quanto substrate was used. Slides were counter stained with Hematoxylin. Five fields per stained section per xenograft were photographed at 10X. CC3+ and pERK+ area and number of events per field were quantitated via automated image analysis (NIS Elements BR analysis ver. 4.13.04). Vessel number and lumen area per field used the same software with manual settings to trace vessel wall contours. Antibodies used are as follows: CC3: Cell Signaling #9661, use at 1:300. (Cleaved Caspase-3 (Asp175) Antibody. Rabbit polyclonal. pERK: Cell Signaling #4370: Phospho-p44/42 MAPK (Erk1/2) (Thr202/Tyr204) (D13.14.4E) XP Rabbit mAB. CD31 (PECAM-1) (D8V9E) XP Rabbit mAB (Cell signal # (Cell signal #77699). Normal rabbit IgG: Santa Cruz #sc-3888. Concentration is 50 μg/mL or 50 ng/μL. Prepared with 5 μg in 200 μL blocking solution. Goat Anti-Rabbit IgG Biotin Conjugate: Calbiochem #OS03B, Concentration=1.2 mg/mL. Recommended to be used for IHC at 1 μg/mL.

[2] = tested on: sphingomyelin (SM) in MiaPaCa-2 tumor sections; experiment: Lysenin (GFP-Lys) staining of tumor sections; type: in vivo, nu/nu mice; settings: 12.5 mg/kg
Protocol: Lysenin Staining of Tumor Sections. To label intracellular SM, 3 μm thick cryosections, fixed in 4% paraformaldehyde and quenched in 0.1 M NH4Cl, were permeabilized with 0.5% saponin before overnight incubation (4° C.) with MBP-GFP Lysenin (50 μg/mL) in PBS with 0.5% saponin containing DAPI (5 ng/mL). Samples mounted in FluorSave were photographed in the Nikon AIR Confocal Laser Microscope. GFP-Lysenin binding was quantitated using NIS
Elements BR analysis ver. 4.13.04. The average value obtained in the negative control pictures (background) was subtracted from each of the GFP pictures (n=20).
To determine if the reduction in tumor growth elicited by the compounds were mediated by inhibition of ASM, we stained the tissue sections for SM using a non-toxic recombinant fragment of lysenin tagged with GFP (GFP-Lys). In DMSO-treated tumor sections, weak GFP-Lys staining was observed. […] We also observed that the blood vessels were dilated in compound 6 treated tumors, whereas the blood vessel diameters were not changed in compound 12h (NY0331) and 22 (NY0335) treated tumors (FIG. 8E).

[3] = target: SMPD1-GFP (ASM) (Homo sapiens (Human), UniProt P17405); experiment: Western blot of SMPD1-GFP levels; type: cell-based; settings: 5 μM compounds for 48 h
Protocol: (§2) FIG. 6A-C. (A) Dose response curves quantifying the extent of KRASG12V and LactC2 mislocalization after 48 h treatment with compounds. Mislocalization was quantified using Manders coefficients as the fraction of mCherry-CAAX co-localizing with mGFP-KRASG12V or GFP-LactC2. (B) ASM activity in cell stably expressing GFP-tagged SMPD1 treated with DMSO or 5 μM compound for 48 h. (C) Representative western blots and quantitation of SMPD1-GFP levels in cells treated with 5 μM compounds for 48 h. (D) Representative confocal images of MDCK cells stably co-expressing mGFP-KRASG12V and mCherry-CAAX treated with 10 μM compound 6 or 1 μM of compounds 12f (NY0244), 12h (NY0331) or 22 (NY0335) for 48 h (-ASM), then incubated with recombinant ASM in the continued presence of drugs for a further 60 min (+ASM). Mislocalization was quantified using Manders coefficients as the fraction of mCherry-CAAX co-localizing with mGFP-KRASG12V.
Western Blotting. […] Signals were detected by enhanced chemiluminescence (Thermo Fisher Scientific) and imaged using a FluorChemQ imager (Alpha Inotech). Quantification of intensities was performed using FluorChemQ software.

[4] = tested on: cleaved caspase 3 (CC3); experiment: Immunohistochemistry of tumor sections, cleaved caspase 3; design: species or system nu/nu mice; settings: mouse, in vivo
Protocol: as §1, with “(Cleaved Caspase-3 (Asp175) Antibody. Rabbit polyclonal. pERK: Cell Signaling #4370: Phospho-p44/42 MAPK (Erk1/2) (Thr202/Tyr204) (D13.14.4E) XP Rabbit mAB. CD31 (PECAM-1) (D8V9E) XP Rabbit mAB (Cell signal # (Cell signal #77699). Normal rabbit IgG: Santa Cruz #sc-3888. Concentration is 50 μg/mL or 50 ng/μL. Prepared with 5 μg in 200 μL blocking solution. Goat Anti-Rabbit IgG Biotin Conjugate: Calbiochem #OS03B, Concentration=1.2 mg/mL. Recommended to be used for IHC at 1 μg/mL.” left out

[5] = target: human ASM (SMPD1)-GFP (Homo sapiens (Human), UniProt P17405); experiment: ASM activity assay (Amplex Red SMase kit, lysates of treated cells); type: cell-based; settings: 5 μM compound for 48 h
Sequence of human ASM (SMPD1)-GFP (P17405 47-631): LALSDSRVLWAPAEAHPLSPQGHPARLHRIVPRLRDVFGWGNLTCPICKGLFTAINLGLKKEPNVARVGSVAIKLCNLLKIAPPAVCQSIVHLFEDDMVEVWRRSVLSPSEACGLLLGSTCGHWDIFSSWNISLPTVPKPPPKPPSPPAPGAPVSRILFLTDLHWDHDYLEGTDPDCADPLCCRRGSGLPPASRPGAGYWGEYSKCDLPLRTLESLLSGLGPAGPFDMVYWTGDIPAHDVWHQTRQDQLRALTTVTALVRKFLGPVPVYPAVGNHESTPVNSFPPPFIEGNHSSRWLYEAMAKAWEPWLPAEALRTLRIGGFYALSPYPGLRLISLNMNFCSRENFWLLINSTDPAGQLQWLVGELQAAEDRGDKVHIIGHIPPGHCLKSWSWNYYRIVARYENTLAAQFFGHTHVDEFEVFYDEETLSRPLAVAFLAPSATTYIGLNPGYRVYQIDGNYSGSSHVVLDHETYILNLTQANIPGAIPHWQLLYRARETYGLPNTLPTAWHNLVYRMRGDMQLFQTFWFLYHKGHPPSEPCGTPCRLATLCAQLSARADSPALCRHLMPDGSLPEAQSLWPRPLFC
Protocol: as §2
ASM Activity Assay. The ASM activity assay was performed with Amplex Red SMase Assay Kit (A12220; Invitrogen; Carlsbad, CA) according to the manufacturer's instructions. […] The plate was further incubated in the dark in 37° C. for 60 min, and the fluorescence was measured using BioTek Synergy H1 microplate reader (excitation λ=540 nm, emission λ=590 nm). […]

## CC(NCCC(c1ccccc1)c1ccccc1)c1ccccc1 (centres unmarked) [Fendiline]
[1]
  pERK levels in tumors: no significant effect
[2]
  GFP-Lys staining (SM) of tumor sections: significantly increased

## COc1ccc([C@@H](C)N(CC=C(c2ccccc2)c2ccccc2)CCN2CCCC2)cc1 [NY0331, (R)-N-(1-(4-methoxyphenyl)ethyl)-3,3-diphenyl-N-(2-(pyrrolidin-1-yl)ethyl)prop-2-en-1-amine]
[1]
  pERK levels in tumors: reduced
[2]
  GFP-Lys staining (SM) of tumor sections: significantly increased
[3]
  cellular levels of ASM (SMPD1-GFP): reduced the levels of ASM
[4]
  cleaved caspase 3 (CC3) in tumors: increased
[5]
  inhibition of ASM: most potent

## COc1ccc([C@@H](C)N(CC=C(c2ccccc2)c2ccccc2)CCN2CCN(C)CC2)cc1 [NY0244, (R)-N-(1-(4-methoxyphenyl)ethyl)-N-(2-(4-methylpiperazin-1-yl)ethyl)-3,3-diphenylprop-2-en-1-amine]
[3]
  cellular levels of ASM (SMPD1-GFP): reduced the levels of ASM

## COc1ccc([C@@H](C)N(CC=C(c2ccccc2)c2ccccc2)CCCN2CCN(C)CC2)cc1 [NY0335, (R)-N-(1-(4-methoxyphenyl)ethyl)-N-(3-(4-methylpiperazin-1-yl)propyl)-3,3-diphenylprop-2-en-1-amine]
[1]
  pERK levels in tumors: reduced
[2]
  GFP-Lys staining (SM) of tumor sections: did not enhance GFP-Lys staining
[4]
  cleaved caspase 3 (CC3) in tumors: increased
